# Measured values taken from US6521790B2, “Alkynyl amides and their therapeutic applications” (Abbott Laboratories, priority 2000, dated 2003).
# What was measured:
# [1] = test system: pentylenetetrazole (PTZ) induced seizures; experiment: Latency to and protection against PTZ induced seizures in mice; type: in vivo; conditions: compound 1400 μmol/kg intra-peritoneally; for Time to Seizure: average time for PTZ induced seizure, male CD1 mice, PTZ 85 mg/kg s.c., observed 15 minutes; for Number of Mice Protected: number of mice out of ten that did not seize within 15 minutes after PTZ 85 mg/kg s.c.
# Protocol: Male CD1 mice (Charles River, Portage, Mich.) weighing 25-35 g were used and during the experiment the mice were housed individually in clear polycarbonate cages for observation. For each experiment, ten mice were each pretreated intra-peritoneally with a compound of the present invention (1400 μmol/kg) prior to pentylenetetrazole (PTZ) (Sigma, St. Louis, Mo.) injection. Seizures were induced by the subcutaneous injection of PTZ (85 mg/kg) just below the nape of the neck. […] The data in Table 1 represents the average time for PTZ induced seizure. […] Control animals were not pretreated with a compound of the present invention but were injected with PTZ (85 mg/kg) subcutaneously.
# [2] = test system: electrical shock induced seizures; experiment: Maximum Electrical Shock Method (MES); type: in vivo; conditions: oral, male CD1 mice
# From the text: Male CD1 mice (Charles River) weighing from 25-35 g were used. Mice were pretreated orally with compounds of the present invention prior to electrical stimulation. Mice were challenge by pulsed electrical stimulation (50 mA, 0.4 s duration, pulse width 0.5 ms, 60 pulses/sec) via corneal electrodes to induce seizure. The stimulation was delivered with an ECT Unit (Ugo Basile #7801). The electrodes of the unit were coated with electrocardiogram electrolyte (Signa Creme, Parker Labs #1708) to ensure good contact with the corneas. Mice were observed post-stimulation for the onset of seizures and death. […] Animals which gave a positive seizure response were observed an additional 30 seconds for death. […] The percent protection from seizures was calculated by dividing the number of protected mice by the total number of mice for the group. The percentage of mice protected from electrical shock induced seizures at doses of 600, 1200, 1800 and 2400 μmole/kg is illustrated in Table 3 for Example 1 and Example 6. The corresponding acid, (2R)-2-propyl-4-hexynoic acid, was also tested for comparison.
# [3] = reported in literature (Abbott, Tang, Palaty 1997); cited from earlier work
# [4] = one study, compared with valproic acid; cited from earlier work
SMILES,Time to Seizure [1],Number of Mice Protected [1],Percentage of Mice Protected Against Electrical Shock Induced Seizures ([2]; dose 600 μmole/kg),Percentage of Mice Protected Against Electrical Shock Induced Seizures ([2]; dose 1200 μmole/kg),Percentage of Mice Protected Against Electrical Shock Induced Seizures ([2]; dose 1800 μmole/kg),other results
"CC#CC[C@@H](CCC)C(N)=O [Example 6, (2R)-2-propyl-4-hexynamide]",No Seizures,10,0%,20%,90%,
"CC#CC[C@@H](CCC)C(=O)NCC(N)=O [Example 1, (2R)-N-(2-amino-2-oxoethyl)-2-propyl-4-hexynamide]",675 s,5,0%,70%,90%,Percentage of Mice Protected Against Electrical Shock Induced Seizures ([2]; dose 2400 μmole/kg): 100%
"CC#CC[C@@H](CCC)C(=O)N[C@@H](C)C(N)=O [Example 4, (2R)-N-[(1S)-2-amino-1-methyl-2-oxoethyl]-2-propyl-4-hexynamide]",610 s,6,,,,
"CC#CC[C@@H](CCC)C(=O)O [(2R)-2-propyl-4-hexynoic acid, reference compound]",,,0%,0%,0%,Percentage of Mice Protected Against Electrical Shock Induced Seizures ([2]; dose 2400 μmole/kg): 20%
"CC#CC[C@@H](CCC)C(=O)N[C@H](C)C(N)=O [Example 5, (2R)-N-[(1R)-2-amino-1-methyl-2-oxoethyl]-2-propyl-4-hexynamide]",525 s,2,,,,
"CC#CC[C@@H](CCC)C(=O)N[C@@H](CC(C)C)C(N)=O [Example 3, (2R)-N-[(1S)-1-(aminocarbonyl)-3-methylbutyl]-2-propyl-4-hexynamide]",575 s,4,,,,
"CC#CC[C@@H](CCC)C(=O)N[C@H](C(N)=O)C(C)C [Example 2, (2R)-N-[(1S)-1-(aminocarbonyl)-2-methylpropyl]-2-propyl-4-hexynamide]",305 s,1,,,,
CCCC(F)(CCC)C(=O)O [2-fluoro-2-propylpentanoic acid],,,,,,Anticonvulsant potency relative to VPA [3]: less potent than VPA
CC#CCC(CCC)C(=O)O (stereo not shown) [2-propyl-4-hexynoic acid],,,,,,Antiepileptic effect and duration of activity [4]: effective antiepileptic with a longer duration of activity
